Laboratory results reported in patent US4386099A, “Imidazolylphenyl amidines, pharmaceutical compositions containing same and use thereof” (Istituto de Angeli S.p.A., priority 1980, dated 1983).
Read-outs that look alike come from different tables or passages of the source.

Assays:
histamine H2-receptors [1] = target: T1, histamine H2-receptors (Cavia porcellus, UniProt P47747); experiment: In vitro inhibitory activity in histamine-induced tachycardia (positive chronotropic effect, isolated guinea pig atria); assay type: cell-based; settings: reduction of histamine (10^-6 g/ml) H2-evoked response, pH 7.4, 32° C.
T1 construct: isolated guinea pig atria suspended in an organ bath; from tissue; host or cells: isolated guinea pig atria
Protocol: The positive chronotropic effect has been investigated in isolated guinea pig atria suspended in an organ bath (50 ml) containing oxygenated (O2 : 95%, CO2 : 5%) Krebs-Henseleit solution (pH 7.4) maintained at 32° C. The myocardial preparation, loaded at 1 gm of isometric tension, is allowed to stabilize for 60 minutes and myocardial contractions are recorded through an isometric lever connected to a strain-gauge coupler. The instantaneous rate is monitored with a cardiotachymeter and a heat-writing pen recorder. After a control run, responses (tachycardia) to histamine (10^-6 g/ml) are obtained three times at 30 minute intervals. The test compounds are added to the bath to the desired final concentration, and the atria are again injected with histamine. The chronotropic response obtained in the presence of the antagonist is then compared to the control response to histamine, and the percent reduction of the histamine H2 -evoked response is calculated. […] 3 Smooth Muscle, Ed Daniel E. E. Patron, M., Plenum Press. New York (1975), and Ash and Schild, Br. J. Pharmacol. Chemother. 27 427-439 (1966).

histamine H2-receptors [2] = target: T2, histamine H2-receptors (Rattus norvegicus, UniProt P25102); experiment: In vivo anti-secretory activity in histamine-induced gastric secretion (stomach perfused rat); settings: iv
T2 construct: from tissue; host or cells: stomach of the anaesthetised rat, in vivo
Protocol: The preparation of the animals in general anaesthesia (urethane, 1 gm/kg i.p.) and constant temperature, is achieved by inserting and typing in place polyethyl tubes (PE 50) in the esophagus and in the pyloric-antral region. After the stomach is washed to remove residual food, continuous perfusion of the stomach is started with saline, 0.5 ml/min (37° C.), primed by a Jobling peristaltic pump. After 30 minutes of perfusion adaptation, the stomach perfusate is collected in 30 minute samples, and the samples are titrated for acid content, expressed as μEq of 1 N NaOH. As acid output becomes constant, as a control, intravenous perfusion of histamine (1 mg/kg.hr) is started and maintained throughout the experimental period. […] The ED50 values are then calculated by standard procedure.

[3] = in vivo; cited from earlier work
[4] = in vivo; cited from earlier work; remark: listed apart in the source
H2-receptor [5] = settings: cited from earlier work; for Potency as H2-receptor antagonist: in vitro testing, vs cimetidine
H2-receptor [6] = settings: in man, vs burimamide; cited from earlier work
[7] = in vivo; cited from earlier work; remark: listed apart in the source
gastric acid secretion = settings: in vivo testing, vs cimetidine; cited from earlier work
[8] = stomach perfused rat, histamine 1 mg/kg.hr i.v., expressed with regard to the compound as a base, read-out: ED50

T2 sequence (P25102 whole entry, the tested form may be a part): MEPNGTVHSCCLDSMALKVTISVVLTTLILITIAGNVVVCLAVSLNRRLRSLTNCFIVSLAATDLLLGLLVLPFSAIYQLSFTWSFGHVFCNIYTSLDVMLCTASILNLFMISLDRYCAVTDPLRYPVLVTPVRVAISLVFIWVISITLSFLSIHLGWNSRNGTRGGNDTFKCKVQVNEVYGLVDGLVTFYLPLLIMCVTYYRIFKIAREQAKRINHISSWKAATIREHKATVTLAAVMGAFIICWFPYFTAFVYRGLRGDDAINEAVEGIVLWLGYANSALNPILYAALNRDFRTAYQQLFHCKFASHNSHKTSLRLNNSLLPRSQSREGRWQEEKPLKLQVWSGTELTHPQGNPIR
T1 sequence (P47747 whole entry): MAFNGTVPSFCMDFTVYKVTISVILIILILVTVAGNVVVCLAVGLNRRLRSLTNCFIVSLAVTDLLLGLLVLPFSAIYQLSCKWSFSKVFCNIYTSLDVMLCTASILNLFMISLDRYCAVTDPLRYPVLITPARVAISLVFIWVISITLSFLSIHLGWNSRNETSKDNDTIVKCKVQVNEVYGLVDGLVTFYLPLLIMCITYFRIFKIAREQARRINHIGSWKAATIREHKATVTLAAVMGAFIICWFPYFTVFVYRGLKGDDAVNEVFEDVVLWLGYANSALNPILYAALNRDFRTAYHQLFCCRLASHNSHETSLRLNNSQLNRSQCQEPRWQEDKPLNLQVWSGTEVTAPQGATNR

Row | SMILES | EC50 (histamine H2-receptors [1]) | ED50 (histamine H2-receptors [2]; [8]) | also measured
1 | CC(C)NC=Nc1ccc(-c2c[nH]cn2)cc1 [B, N-Isopropyl-N'-[4-(imidazol-4-yl)-phenyl]-formamidine] | 92 nM | 0.0129 mg/kg | 
2 | C=CCNC=Nc1ccc(-c2c[nH]cn2)cc1 [C, N-Allyl-N'-[4-(imidazol-4-yl)-phenyl]-formamidine] | 93 nM | 0.024 mg/kg | 
3 | CN/C(=N/CCSCc1nc[nH]c1C)NC#N [Cimetidine] |  |  | Toxic side effects [3]: devoid of the toxic side effects of metiamide; Half-life [4]: relatively short; Potency as H2-antagonist (H2-receptor [5]; cimetidine vs metiamide): as potent as metiamide; ED50 (histamine H2-receptors [2]; rat): 0.56 mg/kg
4 | CCNC=Nc1ccc(-c2c[nH]cn2)cc1 [Compound A, N-Ethyl-N'-[4-(imidazol-4-yl)-phenyl]-formamidine] | 300 nM | 0.02 mg/kg | 
5 | CC(C)=CCNC=Nc1ccc(-c2c[nH]cn2)cc1 [G] | 74 nM | 0.0559 mg/kg | 
6 | C(=Nc1ccc(-c2c[nH]cn2)cc1)NCC1CC1 [H, N-Cyclopropylmethyl-N'-[4-(imidazol-4-yl)-phenyl]-formamidine] | 48 nM | 0.0235 mg/kg | 
7 | C(=Nc1ccc(-c2c[nH]cn2)cc1)NC1CC1 [I, N-Cyclopropyl-N'-[4-(imidazol-4-yl)-phenyl]-formamidine] | 379 nM | 0.0366 mg/kg | 
8 | CC1(C)CC1CNC=Nc1ccc(-c2c[nH]cn2)cc1 (centres unmarked) [L, N-(2,2-Dimethyl)-cyclopropylmethyl-N'-[4-(imidazol-4-yl)-phenyl]-formamidine] | 500 nM | 0.034 mg/kg | 
9 | C/N=C(\S)NCCSCc1[nH]cnc1C [Metiamide] |  |  | Toxic side effects [3]: toxic side effects (agranulocytosis); Potency and oral activity (H2-receptor [6]): more potent and orally active in man than burimamide
10 | CNC(=S)NCCCCc1cnc[nH]1 [burimamide] |  |  | Oral bioavailability [7]: seemed to lack sufficient oral bioavailability
11 | CNC(=C[N+](=O)[O-])NCCSCc1ccc(CN(C)C)o1 [ranitidine] |  |  | Potency as inhibitor of gastric acid secretion (gastric acid secretion): more potent than cimetidine; Potency as H2-receptor antagonist (H2-receptor [5]): more potent than cimetidine
12 | CNC(=NCCSCc1csc(N=C(N)N)n1)NC#N [tiotidine] |  |  | Potency as inhibitor of gastric acid secretion (gastric acid secretion): more potent than cimetidine; Potency as H2-receptor antagonist (H2-receptor [5]): more potent than cimetidine

Continued by falling EC50 (histamine H2-receptors [1]), values first:

Row | EC50 (histamine H2-receptors [1]) | ED50 (histamine H2-receptors [2]; [8]) | SMILES | also measured
13 | 168 nM | 0.042 mg/kg | C=CC(C)NC=Nc1ccc(-c2c[nH]cn2)cc1 (stereo not drawn) [J, N-(α-Methylallyl)-N'-[4-(imidazol-4-yl)-phenyl]-formamidine] | 
14 | 150 nM | 0.0223 mg/kg | CCC(C)NC=Nc1ccc(-c2c[nH]cn2)cc1 (centres unmarked) [Compound E, N-sec-Butyl-N'-[4-(imidazol-4-yl)-phenyl]-formamidine] | 
15 | 121 nM | 0.03 mg/kg | CC(C)(C)CNC=Nc1ccc(-c2c[nH]cn2)cc1 [K, N-Neopentyl-N'-[4-(imidazol-4-yl)-phenyl]-formamidine] | 
16 | 65 nM | 0.0259 mg/kg | CC(C)CNC=Nc1ccc(-c2c[nH]cn2)cc1 [F, N-Isobutyl-N'-[4-(imidazol-4-yl)-phenyl]-formamidine] | 
17 | 44 nM | 0.0111 mg/kg | CCCNC=Nc1ccc(-c2c[nH]cn2)cc1 [D, N-n-Propyl-N'-[4-(imidazol-4-yl)-phenyl]-formamidine] | 
